According to patent publication US10414763B2 (CANCER RESEARCH TECHNOLOGY LIMITED, priority 2014, dated 2019):

Molecular target: T1, full-length human PKCι (Homo sapiens, UniProt P41743)
T1 construct: Recombinant, full-length human PKCι expressed in Sf21 insect cells is also commercially available; purchased EMD Millipore; host or cells: Sf21 insect cells (baculovirus)
T1 sequence (P41743 1-596): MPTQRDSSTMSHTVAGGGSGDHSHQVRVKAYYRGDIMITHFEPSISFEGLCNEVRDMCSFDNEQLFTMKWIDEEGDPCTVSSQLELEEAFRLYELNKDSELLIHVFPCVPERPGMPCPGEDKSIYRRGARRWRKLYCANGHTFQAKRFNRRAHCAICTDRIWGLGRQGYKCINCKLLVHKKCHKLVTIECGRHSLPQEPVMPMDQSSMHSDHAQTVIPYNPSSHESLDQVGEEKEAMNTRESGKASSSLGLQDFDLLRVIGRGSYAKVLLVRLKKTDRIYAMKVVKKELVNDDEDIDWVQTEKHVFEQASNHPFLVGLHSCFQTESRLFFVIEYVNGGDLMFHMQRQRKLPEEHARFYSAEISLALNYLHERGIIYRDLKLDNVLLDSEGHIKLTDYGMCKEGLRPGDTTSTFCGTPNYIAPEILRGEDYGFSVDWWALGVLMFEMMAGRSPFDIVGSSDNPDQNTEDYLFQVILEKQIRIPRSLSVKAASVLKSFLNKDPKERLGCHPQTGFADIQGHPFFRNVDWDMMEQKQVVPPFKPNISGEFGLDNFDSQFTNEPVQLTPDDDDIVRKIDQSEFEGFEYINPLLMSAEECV
Assay: PKCι IC50 IMAP fluorescence polarisation assay, full-length enzyme, 150 μM ATP
Format: biochemical
Conditions: read-out: IC50 in IMAP assay against full length PKCi at 150 μM ATP
Outline: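 IMAP fluorescence polarisation kinase assay: 15 pM baculovirus-expressed human PKCiota with 100 nM FAM-pseudosubstrate peptide and 150 μM ATP, 1 h at 25 °C. IMAP detection reagent then 2 h at 25 °C before FP measurement. Inhibition referenced to no-compound and no-enzyme controls for IC50 fitting.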

Row | SMILES | IC50 [nM]
1 | CN(c1nc(-c2ccnc(Nc3ccccc3)c2)nc2cncc(C3CCC3)c12)C1CCNCC1(C)C (stereo not shown) [Example 110, [5-Cyclobutyl-2-(2-phenylamino-pyridin-4-yl)-pyrido[3,4-d]pyrimidin-4-yl]-(3,3-dimethyl-piperidin-4-yl)-methyl-amine] | < 100
2 | Cc1cc2c(-c3nc(N(C)C4CCNCC4(C)C)c4c(C5CC5)cncc4n3)ccnc2[nH]1 (stereo not shown) [Example 115, [5-Cyclopropyl-2-(2-methyl-1H-pyrrolo[2,3-b]pyridin-4-yl)-pyrido [3,4-d]pyrimidin-4-yl]-(3,3-dimethyl-piperidin-4-yl)-methyl-amine] | < 100
3 | Cc1cc2c(-c3nc(N(C)C4CCNCC4(C)C)c4c(C5CCC5)cncc4n3)ccnc2[nH]1 (stereo not shown) [Example 116, [5-Cyclobutyl-2-(2-methyl-1H-pyrrolo[2,3-b]pyridin-4-yl)-pyrido[3,4-d]pyrimidin-4-yl]-(3,3-dimethyl-piperidin-4-yl)-methyl-amine] | < 100
4 | CSc1cc2c(-c3nc(N(C)C4CCNCC4)c4c(C5CC5)cncc4n3)ccnc2[nH]1 [Example 119, [5-Cyclopropyl-2-(2-methylsulfanyl-1H-pyrrolo[2,3-b]pyridin-4-yl)-pyrido[3,4-d]pyrimidin-4-yl]-methyl-piperidin-4-yl-amine] | < 100
5 | Clc1ccccc1-c1cc2c(-c3nc(N4CCC5NCCC54)c4c(C5CC5)cncc4n3)ccnc2[nH]1 (stereo not shown) [Example 128, 2-[2-(2-Chloro-phenyl)-1H-pyrrolo[2,3-b]pyridin-4-yl]-5-cyclopropyl-4-(hexahydro-pyrrolo[3,2-b]pyrrol-1-yl)-pyrido[3,4-d]pyrimidine] | < 100
6 | Clc1ccccc1-c1cc2c(-c3nc(N4CCC5NCCCC54)c4c(C5CC5)cncc4n3)ccnc2[nH]1 (stereo not shown) [Example 129, 2-[2-(2-Chloro-phenyl)-1H-pyrrolo[2,3-b]pyridin-4-yl]-5-cyclopropyl-4-(octahydro-pyrrolo[3,2-b]pyridin-1-yl)-pyrido [3,4-d]pyrimidine] | < 100
7 | Clc1cc2c(-c3nc(N4CCNCC4)c4c(C5CCC5)cncc4n3)ccnc2[nH]1 [Example 130, 2-(2-Chloro-1H-pyrrolo[2,3-b]pyridin-4-yl)-5-cyclobutyl-4-piperazin-1-yl-pyrido[3,4-d]pyrimidine] | < 100
8 | c1ncc(-c2cc3c(-c4nc(N5CCNCC5)c5c(C6CCC6)cncc5n4)ccnc3[nH]2)cn1 [Example 131, 5-Cyclobutyl-4-piperazin-1-yl-2-(2-pyrimidin-5-yl-1H-pyrrolo[2,3-b]pyridin-4-yl)-pyrido[3,4-d]pyrimidine] | < 100
9 | Cn1cc(-c2cc3c(-c4nc(N5CCNCC5)c5c(C6CCC6)cncc5n4)ccnc3[nH]2)cn1 [Example 132] | < 100
10 | CCSc1cc2c(-c3nc(N4CCNCC4)c4c(C5CCC5)cncc4n3)ccnc2[nH]1 [Example 133, 5-Cyclobutyl-2-(2-ethylsulfanyl-1H-pyrrolo[2,3-b]pyridin-4-yl)-4-piperazin-1-yl-pyrido[3,4-d]pyrimidine] | < 100
11 | CCSc1cc2c(-c3nc(N4CCNCC4)c4c(C5CC5)cncc4n3)ccnc2[nH]1 [Example 134, 5-Cyclopropyl-2-(2-ethylsulfanyl-1H-pyrrolo[2,3-b]pyridin-4-yl)-4-piperazin-1-yl-pyrido[3,4-d]pyrimidine] | < 100
12 | CC1(C)CNCCC1Nc1nc(-c2ccnc(Nc3cc4ccccn4n3)c2)nc2cncc(C3CCC3)c12 (stereo not shown) [Example 136, {5-Cyclobutyl-2-[2-(pyrazolo[1,5-a]pyridin-2-ylamino)-pyridin-4-yl]-pyrido[3,4-d]pyrimidin-4-yl}-(3,3-dimethyl-piperidin-4-yl)-amine] | < 100
13 | CC1(C)CC(Nc2nc(-c3ccnc(Nc4nc(F)c(F)cc4F)c3)nc3cncc(C4CCC4)c23)CCN1 (stereo not shown) [Example 137, {5-Cyclobutyl-2-[2-(3,5,6-trifluoro-pyridin-2-ylamino)-pyridin-4-yl]-pyrido[3,4-d]pyrimidin-4-yl}-(2,2-dimethyl-piperidin-4-yl)-amine] | < 100
14 | CC1(C)CC(Nc2nc(-c3ccnc(Nc4nc(F)ccc4F)c3)nc3cncc(C4CCC4)c23)CCN1 (stereo not shown) [Example 138, {5-Cyclobutyl-2-[2-(3,6-difluoro-pyridin-2-ylamino)-pyridin-4-yl]-pyrido[3,4-d]pyrimidin-4-yl}-(2,2-dimethyl-piperidin-4-yl)-amine] | < 100

The next lines start with the values.

Row | IC50 [nM] | SMILES
15 | < 100 | CC1(C)CNCCC1Nc1nc(-c2ccnc(Nc3cc(C#N)ccn3)c2)nc2cncc(C3CCC3)c12 (stereo not shown) [Example 107, 2-{4-[5-Cyclobutyl-4-(3,3-dimethyl-piperidin-4-ylamino)-pyrido[3,4-d]pyrimidin-2-yl]-pyridin-2-ylamino}-isonicotinonitrile]
16 | < 100 | Fc1cc(F)c(Nc2cc(-c3nc(N[C@H]4[C@@H]5CNC[C@@H]54)c4c(C5CCC5)cncc4n3)ccn2)nc1F [Example 108, (1S,6S)-3-Aza-bicyclo[3.1.0]hex-6-yl-{(R)-5-cyclobutyl-2-[2-(3,5,6-trifluoro-pyridin-2-ylamino)-pyridin-4-yl]-pyrido[3,4-d]pyrimidin-4-yl}-amine]
17 | < 100 | Fc1ccc(F)c(Nc2cc(-c3nc(N[C@H]4[C@@H]5CNC[C@@H]54)c4c(C5CCC5)cncc4n3)ccn2)n1 [Example 109, (1S,6S)-3-Aza-bicyclo[3.1.0]hex-6-yl-{(R)-5-cyclobutyl-2-[2-(3,6-difluoro-pyridin-2-ylamino)-pyridin-4-yl]-pyrido[3,4-d]pyrimidin-4-yl}-amine]
18 | < 100 | c1ccc(Nc2cc(-c3nc(N[C@H]4[C@@H]5CNC[C@@H]54)c4c(C5CCC5)cncc4n3)ccn2)cc1 [Example 111, (1S,6S)-3-Aza-bicyclo[3.1.0]hex-6-yl-[(R)-5-cyclobutyl-2-(2-phenylamino-pyridin-4-yl)-pyrido[3,4-d]pyrimidin-4-yl]-amine]
19 | < 100 | COc1nc(-c2cc3c(-c4nc(N5CCNCC5)c5c(C6CC6)cncc5n4)ccnc3[nH]2)cs1 [Example 112, 5-Cyclopropyl-2-[2-(2-methoxy-thiazol-4-yl)-1H-pyrrolo[2,3-b]pyridin-4-yl]-4-piperazin-1-yl-pyrido[3,4-d] pyrimidine]
20 | < 100 | COc1nc(-c2cc3c(-c4nc(N5CCC6CNCCC65)c5c(C6CC6)cncc5n4)ccnc3[nH]2)cs1 (stereo not shown) [Example 118, 5-Cyclopropyl-2-[2-(2-methoxy-thiazol-4-yl)-1H-pyrrolo[2,3-b]pyridin-4-yl]-4-(octahydro-pyrrolo[3,2-c]pyridin-1-yl)-pyrido[3,4-d]pyrimidine]
21 | < 100 | CS(=O)(=O)c1cc2c(-c3nc(N4CCNCC4)c4c(C5CCC5)cncc4n3)ccnc2[nH]1 [Example 120, 5-Cyclobutyl-2-(2-methanesulfonyl-1H-pyrrolo[2,3-b]pyridin-4-yl)-4-piperazin-1-yl-pyrido[3,4-d]pyrimidine]
22 | < 100 | N[C@H]1C[C@@H](Nc2nc(-c3ccnc4[nH]c5ccccc5c34)nc3cncc(C4CCC4)c23)C1 [Example 121, cis-[5-Cyclobutyl-2-(9H-pyrido[2,3-b]indol-4-yl)-pyrido[3,4-d]pyrimidin-4-yl]-cyclobutane-1,3-diamine]
23 | < 100 | OC1CNCCC(Nc2nc(-c3ccnc4[nH]c5ccccc5c34)nc3cncc(C4CCC4)c23)C1 (stereo not shown) [Example 122, 5-[5-Cyclobutyl-2-(9H-pyrido[2,3-b]indol-4-yl)-pyrido[3,4-d]pyrimidin-4-ylamino]-azepan-3-ol]
24 | < 100 | Fc1cc(F)c(Nc2cc(-c3nc(N4CCC5NCCCC54)c4c(C5CCC5)cncc4n3)ccn2)nc1F (stereo not shown) [Example 123, {4-[5-Cyclobutyl-4-(octahydro-pyrrolo[3,2-b]pyridin-1-yl)-pyrido[3,4-d]pyrimidin-2-yl]-pyridin-2-yl}-(3,5,6-trifluoro-pyridin-2-yl)-amine]
25 | < 100 | Fc1ccc(F)c(Nc2cc(-c3nc(N4CCC5NCCCC54)c4c(C5CCC5)cncc4n3)ccn2)n1 (stereo not shown) [Example 124, {4-[5-Cyclobutyl-4-(octahydro-pyrrolo[3,2-b]pyridin-1-yl)-pyrido[3,4-d]pyrimidin-2-yl]-pyridin-2-yl}-(3,6-difluoro-pyridin-2-yl)-amine]
26 | < 100 | c1ccc(Nc2cc(-c3nc(N4CCC5NCCCC54)c4c(C5CCC5)cncc4n3)ccn2)cc1 (stereo not shown) [Example 125, {4-[5-Cyclobutyl-4-(octahydro-pyrrolo[3,2-b]pyridin-1-yl)-pyrido[3,4-d]pyrimidin-2-yl]-pyridin-2-yl}-phenyl-amine]
27 | < 100 | CC1CNCCC1Nc1nc(-c2ccnc(Nc3nc(F)c(F)cc3F)c2)nc2cncc(C3CCC3)c12 (stereo not shown) [Example 126, {5-Cyclobutyl-2-[2-(3,5,6-trifluoro-pyridin-2-ylamino)-pyridin-4-yl]-pyrido[3,4-d]pyrimidin-4-yl}-(3-methyl-piperidin-4-yl)-amine]
28 | < 100 | CC1CNCCC1Nc1nc(-c2ccnc(Nc3nc(F)ccc3F)c2)nc2cncc(C3CCC3)c12 (stereo not shown) [Example 127, {5-Cyclobutyl-2-[2-(3,6-difluoro-pyridin-2-ylamino)-pyridin-4-yl]-pyrido[3,4-d]pyrimidin-4-yl}-(3-methyl-piperidin-4-yl)-amine]
